From PMC10845205, “Discovery of novel antibacterial agent for the infected wound treatment: all-hydrocarbon stapling optimization of LL-37” (Theranostics, 2024) come the findings set out here.

What all share (details): 24 h
One assay concerns A. baumannii. How it is done: (§1) According to the protocol of Clinical & Laboratory Standards Institute, the minimum inhibitory concentration (MIC) of the linear and stapled peptides against a panel of gram-positive and gram-negative bacteria was determined by the broth microdilution method. […]
(§2) Bacterial strains and culture
(§3) Bacterial type stains ATCC 25923 S. aureus, ATCC 12228 S. epidermidis, ATCC […]
(§4) aeruginosa and ATCC 13883 K. pneumoniae were obtained from Shanghai Bioresource Collection Center. The bacterial culture medium was purchased from Oxoid and autoclaved according to the instructions from manufacturer. The isolated strains were cultured in Mueller Hinton II broth and continuously shaken at 140 rpm for 18 hours to the middle of the exponential growth phase at 37 °C with an OD value of 0.4-0.5.
(§5) Bacterial suspensions with an OD value of 0.1, approximately […], were then diluted for further assays.
(§6) The minimal inhibition concentration (MIC) of the linear and stapled peptides was determined using the microbroth dilution method from the Clinical and Laboratory Standards Institute (CLSI)[2, 3]. Bacterial suspensions of 10 6 CFU/mL were prepared in MH-II broth and peptide solutions at varying concentrations were prepared in phosphate buffer saline (PBS). Then 50 μL peptide solution and 50 μL bacterial suspension were mixed in a 96 -well plate. Plates were incubated for 24 hours at 37 °C.
(§7) 10 μL AlamarBlue cell viability reagent (ThermoFisher Scientific, UK) was added to each well, then the plate was re -incubated for a further 2 hours at 37 °C. The MIC was recorded as the minimum concentration of peptides required to completely in hibit bacteria growth. For serum stability assessment, the peptide solutions were pre - incubated with 50% human serum for 4 h before the MIC determination. Experiments were performed in 3 independent measurements. […]

The next assay concerns E. coli. How it is done: as §1, §2, §3, §4, §5, §6, §7
For a further assay, the system named is E. faecalis. Here is the method:
as §1, §2, §3, §4, §5, §6, §7

The subject of the next assay is K. pneumoniae. Here is the method: as §1, §2, §3, §4, §5, §6, §7
In another assay the test system is P. aeruginosa. Here is the method:
as §1, §2, §3, §4, §5, §6, §7

The next assay concerns S. aureus. Here is the method:
as §1, §2, §3, §4, §5, §6, §7

Another assay has as its system S. epidermidis. How it is done:
as §1, §2, §3, §4, §5, §6, §7

In brackets after ≈: the same amount, converted by molar mass. Positions of bridges follow the written chain, without caps; N, C: chain ends. Non-standard residues stand in square brackets, D forms with d. Residues, ends and D or L forms follow the SMILES beside them. R8 = C=CCCCCCC[C@@](C)(N)C(=O)O; S5 = C=CCCC[C@](C)(N)C(=O)O Bounds are passed on as bounds.

With `CC[C@H](C)[C@@H]1NC(=O)[C@H](CCCNC(=N)N)NC(=O)[C@H](CCC(N)=O)NC(=O)[C@](C)(NC(=O)[C@@H](NC(=O)[C@H](CCCNC(=N)N)NC(=O)[C@H](CCCCN)NC(C)=O)[C@@H](C)CC)CCCCCCC=CCCC[C@@](C)(C(=O)N[C@@H](CCCNC(=N)N)C(N)=O)NC(=O)[C@H](Cc2ccccc2)NC(=O)[C@H](CC(=O)O)NC(=O)[C@H](CCCCN)NC1=O` [KR-12 (V4, L11)] (Ac-KRI[R8]QRIKDF[S5]R-NH2; staple 4-11), the “MIC A. baumannii” value against A. baumannii amounted to 128 µg/mL (≈ 75.6 µM). Moreover, in the assay with E. coli, the “MIC E. coli” value came to 128 µg/mL (≈ 75.6 µM). Moreover, the “MIC E. faecalis” value against E. faecalis is greater than 256 µg/mL. Moreover, the “MIC K. pneumoniae” value with K. pneumoniae was found to be 128 µg/mL (≈ 75.6 µM). For the same compound, the “MIC P. aeruginosa” value against P. aeruginosa turned out to be 128 µg/mL (≈ 75.6 µM). Besides, the “MIC S. aureus” value against S. aureus was determined as 128 µg/mL (≈ 75.6 µM). Further, the “MIC S. epidermidis” value with S. epidermidis was 256 µg/mL (≈ 151 µM).

On to `CC[C@H](C)[C@@H]1NC(=O)[C@H](CCCNC(=N)N)NC(=O)[C@](C)(NC(C)=O)CCCCCCC=CCCC[C@@](C)(C(=O)N[C@@H](CC(=O)O)C(=O)N[C@@H](Cc2ccccc2)C(=O)N[C@@H](CC(C)C)C(=O)N[C@@H](CCCNC(=N)N)C(N)=O)NC(=O)[C@H]([C@@H](C)CC)NC(=O)[C@H](CCCNC(=N)N)NC(=O)[C@H](CCC(N)=O)NC(=O)[C@H](C(C)C)NC1=O` [KR-12 (K1, K8)] (Ac-[R8]RIVQRI[S5]DFLR-NH2; staple 1-8), for which the “MIC A. baumannii” value against A. baumannii was greater than 256 µg/mL. Further, the “MIC E. coli” value in the assay with E. coli is greater than 256 µg/mL. Moreover, the “MIC E. faecalis” value against E. faecalis is greater than 256 µg/mL. Also, the “MIC K. pneumoniae” value in the assay on K. pneumoniae is greater than 256 µg/mL. The “MIC P. aeruginosa” value in the assay on P. aeruginosa is greater than 256 µg/mL. Besides, in the assay on S. aureus, the “MIC S. aureus” value is greater than 256 µg/mL. For the same compound, in the assay with S. epidermidis, the “MIC S. epidermidis” value was greater than 256 µg/mL.

Take `CC[C@H](C)[C@@H]1NC(=O)[C@H](CCCNC(=N)N)NC(=O)[C@H](CCC(N)=O)NC(=O)[C@H](C(C)C)NC(=O)[C@H]([C@@H](C)CC)NC(=O)[C@](C)(NC(=O)[C@H](CCCCN)NC(C)=O)CCCCCCC=CCCC[C@@](C)(C(=O)N[C@@H](Cc2ccccc2)C(=O)N[C@@H](CC(C)C)C(=O)N[C@@H](CCCNC(=N)N)C(N)=O)NC(=O)[C@H](CCCCN)NC1=O` [KR-12 (R2, D9)] (Ac-K[R8]IVQRIK[S5]FLR-NH2; staple 2-9): the “MIC A. baumannii” value in the assay on A. baumannii was found to be 128 µg/mL (≈ 78.3 µM). In the assay with E. coli, the “MIC E. coli” value was found to be 128 µg/mL (≈ 78.3 µM). In the assay with E. faecalis, the “MIC E. faecalis” value turned out to be 256 µg/mL (≈ 157 µM). The “MIC K. pneumoniae” value against K. pneumoniae was determined as 128 µg/mL (≈ 78.3 µM). Further, the “MIC P. aeruginosa” value with P. aeruginosa is 256 µg/mL (≈ 157 µM). The “MIC S. aureus” value with S. aureus is 256 µg/mL (≈ 157 µM). Further, the “MIC S. epidermidis” value against S. epidermidis is 64 µg/mL (≈ 39.2 µM).

As to `CC[C@H](C)[C@@H]1NC(=O)[C@H](CCCNC(=N)N)NC(=O)[C@](C)(NC(=O)[C@@H](NC(=O)[C@@H](NC(=O)[C@H](CCCNC(=N)N)NC(=O)[C@H](CCCCN)NC(C)=O)[C@@H](C)CC)C(C)C)CCCCCCC=CCCC[C@@](C)(C(N)=O)NC(=O)[C@H](CC(C)C)NC(=O)[C@H](Cc2ccccc2)NC(=O)[C@H](CC(=O)O)NC(=O)[C@H](CCCCN)NC1=O` [KR-12 (Q5, R12)] (Ac-KRIV[R8]RIKDFL[S5]-NH2; staple 5-12), the “MIC A. baumannii” value in the assay with A. baumannii is 64 µg/mL (≈ 39.5 µM). In the assay on E. coli, the “MIC E. coli” value was found to be 32 µg/mL (≈ 19.7 µM). For the same compound, in the assay on E. faecalis, the “MIC E. faecalis” value came out at 256 µg/mL (≈ 158 µM). In addition, the “MIC K. pneumoniae” value against K. pneumoniae came out at 64 µg/mL (≈ 39.5 µM). For the same compound, the “MIC P. aeruginosa” value against P. aeruginosa was determined as 64 µg/mL (≈ 39.5 µM). The “MIC S. aureus” value with S. aureus was 64 µg/mL (≈ 39.5 µM). In addition, in the assay on S. epidermidis, the “MIC S. epidermidis” value is greater than 256 µg/mL.
